Data taken from publication PMC9005971, “Discovery of 2-(4-Acrylamidophenyl)-Quinoline-4-Carboxylic Acid Derivatives as Potent SIRT3 Inhibitors” (Frontiers in Chemistry, 2022).

Tests used:
[1] = target: T1, SIRT1 (Homo sapiens, UniProt Q96EB6); test: SIRT1 enzyme inhibitory assay (fluorescence); format: biochemical; details: for activity at 0.01 µM / activity at 0.033 µM / activity at 0.1 µM / activity at 0.333 µM / activity at 1 µM / activity at 3.3 µM / activity at 10 µM / activity at 33 µM / activity at 100 µM: SIRT1 enzyme activity; for activity at 0.01 µM: 10 nM; for activity at 0.033 µM: 33 nM; for activity at 0.1 µM: 100 nM; for activity at 0.333 µM: 333 nM
T1 sequence (Q96EB6 1-747): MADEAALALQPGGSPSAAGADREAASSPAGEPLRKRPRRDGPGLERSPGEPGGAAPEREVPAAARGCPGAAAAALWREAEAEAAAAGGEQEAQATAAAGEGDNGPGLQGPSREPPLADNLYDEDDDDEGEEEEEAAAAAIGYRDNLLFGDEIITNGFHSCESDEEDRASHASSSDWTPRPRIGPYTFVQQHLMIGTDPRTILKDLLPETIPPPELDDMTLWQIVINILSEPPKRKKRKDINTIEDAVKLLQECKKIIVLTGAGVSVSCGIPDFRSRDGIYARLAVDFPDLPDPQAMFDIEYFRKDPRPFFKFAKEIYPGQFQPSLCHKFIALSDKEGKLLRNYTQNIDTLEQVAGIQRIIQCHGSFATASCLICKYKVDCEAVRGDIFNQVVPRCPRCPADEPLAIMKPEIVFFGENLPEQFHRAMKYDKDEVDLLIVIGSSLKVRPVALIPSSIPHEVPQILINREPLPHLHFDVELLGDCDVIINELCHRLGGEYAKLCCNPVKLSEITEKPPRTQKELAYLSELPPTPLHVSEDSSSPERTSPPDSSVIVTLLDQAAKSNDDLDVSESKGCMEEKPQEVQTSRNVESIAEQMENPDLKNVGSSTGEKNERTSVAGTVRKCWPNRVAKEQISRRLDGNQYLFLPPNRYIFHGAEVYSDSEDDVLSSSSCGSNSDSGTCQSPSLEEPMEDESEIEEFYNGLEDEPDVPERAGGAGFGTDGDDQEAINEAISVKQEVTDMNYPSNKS
Method: (§1) All of the enzymatic reactions were conducted at 37°C for 30 min. […] The compounds were diluted in 10% DMSO and 5 ul of the dilution was added to each reaction mixture (50 ul). The assay was performed by quantitating the amount of fluorescent product generated from the enzyme reaction. Fluorescence intensity is then analyzed at excitation wavelength of 350–360 nm and emission wavelength of 450–460 nm on a SpectraMax M5 microtiter plate reader. The IC50 values were calculated using Prism GraphPad software.

[2] = system: SEM cells; test: In vitro antiproliferative CCK-8 assay, SEM; format: cell-based; details: 72 h, read-out: IC50 growth inhibition SEM
Method: (§2) The proliferation of THP-1, MOLM-13, SEM and MV4-11 cells was tested by CCK-8 assay. Briefly, cells were seeded in 96-well plate with about 5 × 10^3 cells in each well. The cells were treated with P6 or Ara-C (0–10 µM) after 24 h of incubation. CCK-8 reagent ([…]) was added to each well after 72 h of incubation, and cells were incubated at 37°C for 4 h. The light absorbance at 450 nm was measured by using an Opsys microplate reader (Dynex Technologirs, Chantilly, VA, United States). Results are illustrated as percent of cell viability normalized to DMSO-treated control cells.

[3] = target: T2, SIRT2 (Homo sapiens, UniProt Q8IXJ6); test: SIRT2 enzyme inhibitory assay (fluorescence); format: biochemical; details: for activity at 0.01 µM / activity at 0.033 µM / activity at 0.1 µM / activity at 0.333 µM / activity at 1 µM / activity at 3.3 µM / activity at 10 µM / activity at 33 µM / activity at 100 µM: SIRT2 enzyme activity; for activity at 0.01 µM: 10 nM; for activity at 0.033 µM: 33 nM; for activity at 0.1 µM: 100 nM; for activity at 0.333 µM: 333 nM
T2 sequence (Q8IXJ6 1-389): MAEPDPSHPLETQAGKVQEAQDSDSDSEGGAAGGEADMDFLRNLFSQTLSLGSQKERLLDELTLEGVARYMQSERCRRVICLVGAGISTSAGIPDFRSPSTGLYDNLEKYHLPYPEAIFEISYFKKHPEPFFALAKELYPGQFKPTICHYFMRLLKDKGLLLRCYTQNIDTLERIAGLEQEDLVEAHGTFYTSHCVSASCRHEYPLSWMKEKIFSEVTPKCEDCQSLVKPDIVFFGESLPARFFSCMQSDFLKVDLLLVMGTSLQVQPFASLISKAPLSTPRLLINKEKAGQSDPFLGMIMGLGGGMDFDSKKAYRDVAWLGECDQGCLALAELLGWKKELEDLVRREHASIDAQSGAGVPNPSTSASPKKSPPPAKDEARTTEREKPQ
Method: as §1

[4] = system: THP-1, MOLM-13, SEM and MV4-11 cells; test: Cell apoptosis analysis, MLLr leukemic cells; format: cell-based; details: 72 h, flow cytometry
Method: THP-1, MOLM-13, SEM and MV4-11 cells were treated with P6 (0.45–4 µM) or Ara-C (0.1–2.0 µM) for 72 h, collected and resuspended in 1× binding buffer. Cells were incubated with FITC Annexin V and PI double labeling for 30 min in the dark at room temperature and measured by flow cytometry.

[5] = system: MOLM-13 cells; test: In vitro antiproliferative CCK-8 assay, MOLM-13; format: cell-based; details: Homo sapiens, 72 h, read-out: IC50 growth inhibition MOLM-13
Method: as §2

[6] = system: THP-1 cells; test: Colony formation assay, THP-1; format: cell-based; details: 12 days
Method: THP-1, MOLM-13, SEM and MV4-11 cells were cultured with P6 (0–2.0 µM) in 2.6% methycellulose medium containing 10% FBS in a 24-well flat-bottomed plate for 12 days ([Qu et al., 2021]). The number of individual colonies consisting of more than approximately 50 cells was counted by a CX43 microscope (Olympus, Shinjuku-ku, Tokyo, Japan) with an Olympus EP50 camera (Olympus, Shinjuku-ku, Tokyo, Japan).

C=CC(=O)Nc1ccc(-c2cc(C(=O)N3CCN(c4ccccc4F)CC3)c3ccccc3n2)cc1 [Compound P6, N-(4-{4-[4-(2-Fluoro-phenyl)-piperazine-1-carbonyl]-quinolin-2-yl}-phenyl)-acrylamide]
activity at 0.01 µM ([1]; Repeat1): 98%
activity at 0.01 µM ([1]; Repeat2): 102%
activity at 0.033 µM ([1]; Repeat1): 97%
activity at 0.033 µM ([1]; Repeat2): 98%
activity at 0.1 µM ([1]; Repeat1): 100%
activity at 0.1 µM ([1]; Repeat2): 97%
activity at 0.333 µM ([1]; Repeat1): 101%
activity at 0.333 µM ([1]; Repeat2): 95%
activity at 1 µM ([1]; Repeat1): 97%
activity at 1 µM ([1]; Repeat2): 89%
activity at 3.3 µM ([1]; Repeat1): 91%
activity at 3.3 µM ([1]; Repeat2): 85%
activity at 10 µM ([1]; Repeat1): 61%
activity at 10 µM ([1]; Repeat2): 64%
activity at 33 µM ([1]; Repeat1): 42%
activity at 33 µM ([1]; Repeat2): 40%
activity at 100 µM ([1]; Repeat1): 25%
activity at 100 µM ([1]; Repeat2): 26%
IC50 ([1]; mean of two experiments): 32.6 ± 0.8 µM
IC50 [2]: 1.79 µM
activity at 0.01 µM ([3]; Repeat1): 100%
activity at 0.01 µM ([3]; Repeat2): 98%
activity at 0.033 µM ([3]; Repeat1): 96%
activity at 0.033 µM ([3]; Repeat2): 100%
activity at 0.1 µM ([3]; Repeat1): 101%
activity at 0.1 µM ([3]; Repeat2): 101%
activity at 0.333 µM ([3]; Repeat1): 100%
activity at 0.333 µM ([3]; Repeat2): 95%
activity at 1 µM ([3]; Repeat1): 93%
activity at 1 µM ([3]; Repeat2): 83%
activity at 3.3 µM ([3]; Repeat1): 83%
activity at 3.3 µM ([3]; Repeat2): 73%
activity at 10 µM ([3]; Repeat1): 64%
activity at 10 µM ([3]; Repeat2): 65%
activity at 33 µM ([3]; Repeat1): 51%
activity at 33 µM ([3]; Repeat2): 48%
activity at 100 µM ([3]; Repeat1): 36%
activity at 100 µM ([3]; Repeat2): 39%
IC50 ([3]; mean of two experiments): 33.5 ± 1.6 µM
induction of apoptosis [4]: no significant apoptosis
IC50 [5]: 0.98 µM
colony formation percentage ([6]; THP-1, 0.2 µM): 93.2
colony formation percentage ([6]; THP-1, 0.4 µM): 13.4
colony formation percentage ([6]; THP-1, 0.8 µM): 4.1
